According to patent US20230151432A1, “KIF18A INHIBITORS FOR TREATMENT OF NEOPLASTIC DISEASES” (AMGEN INC., priority 2020, published 2023):

Tests used:
[1] = target: T1, human KIF18A (residues 1-467) (Homo sapiens, UniProt Q8NI77); experiment: KIF18A MT-ATPase motor activity, ADP-Glo luminescence assay (Example 19); format: biochemical; conditions: human KIF18A 4 nM, 30 μM ATP; three independent experiments; read-out: IC50, KIF18A motor activity (MT-ATPase)
T1 construct: human KIF18A (residues 1-467, 4 nM); made in house
T1 sequence (Q8NI77 1-467): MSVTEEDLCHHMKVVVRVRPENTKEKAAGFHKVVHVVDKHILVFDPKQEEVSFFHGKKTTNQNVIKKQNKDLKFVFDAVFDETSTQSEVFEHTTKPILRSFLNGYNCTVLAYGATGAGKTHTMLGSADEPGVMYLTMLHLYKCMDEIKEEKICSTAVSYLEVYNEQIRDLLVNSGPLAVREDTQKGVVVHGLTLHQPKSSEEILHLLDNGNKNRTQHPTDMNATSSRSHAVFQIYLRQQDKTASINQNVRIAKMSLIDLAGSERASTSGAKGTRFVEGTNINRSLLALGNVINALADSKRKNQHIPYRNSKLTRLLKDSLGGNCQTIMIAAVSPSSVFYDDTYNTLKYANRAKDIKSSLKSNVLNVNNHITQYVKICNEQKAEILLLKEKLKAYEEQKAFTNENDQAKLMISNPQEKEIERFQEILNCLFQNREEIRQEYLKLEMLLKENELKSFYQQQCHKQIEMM
T1 sequence (P02550 whole entry partner, the tested form may be a part): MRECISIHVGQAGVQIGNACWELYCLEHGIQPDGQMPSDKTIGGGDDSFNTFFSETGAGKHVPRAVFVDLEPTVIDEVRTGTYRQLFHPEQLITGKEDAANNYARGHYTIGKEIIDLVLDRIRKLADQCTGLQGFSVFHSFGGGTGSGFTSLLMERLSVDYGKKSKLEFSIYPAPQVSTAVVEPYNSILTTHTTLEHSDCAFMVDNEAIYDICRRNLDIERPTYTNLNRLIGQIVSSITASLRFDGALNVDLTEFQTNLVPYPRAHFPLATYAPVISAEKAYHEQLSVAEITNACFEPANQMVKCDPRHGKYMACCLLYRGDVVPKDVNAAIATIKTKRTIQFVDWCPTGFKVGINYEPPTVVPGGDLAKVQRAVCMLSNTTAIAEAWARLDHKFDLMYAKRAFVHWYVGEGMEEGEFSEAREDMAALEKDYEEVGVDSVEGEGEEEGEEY
T1 sequence (P02554 whole entry partner, the tested form may be a part): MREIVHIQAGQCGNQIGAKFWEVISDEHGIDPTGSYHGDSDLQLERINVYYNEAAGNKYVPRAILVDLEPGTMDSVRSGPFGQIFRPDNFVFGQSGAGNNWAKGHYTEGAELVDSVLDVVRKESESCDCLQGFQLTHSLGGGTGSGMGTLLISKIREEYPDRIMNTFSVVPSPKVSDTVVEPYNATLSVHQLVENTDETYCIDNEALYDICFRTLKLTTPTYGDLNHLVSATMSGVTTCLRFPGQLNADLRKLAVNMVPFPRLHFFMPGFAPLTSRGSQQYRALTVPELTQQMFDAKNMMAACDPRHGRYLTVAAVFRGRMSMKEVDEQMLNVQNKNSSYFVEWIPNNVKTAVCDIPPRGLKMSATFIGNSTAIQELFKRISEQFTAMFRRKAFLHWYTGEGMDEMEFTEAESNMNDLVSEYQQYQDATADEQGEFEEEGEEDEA
Description: A trio of KIF18A inhibitors (Compound C9, Compound C11, and Compound C12) were synthesized and tested in vitro for KIF18A inhibitory activity. […] The values represent mean t SEM from three independent experiments. […] As in vivo studies in mice were planned, the mouse KIF18A inhibitory effects of Compound C9 and C12 were assayed.
KIF18A compounds C9, C11, C12 were 2-fold serially diluted over a 22-point concentration range in DMSO using 384-well plate (Corning). Recombinant truncated kinesin motor proteins (human KIF18A (residues 1-467, 4 nM), mouse KIF18A (residues 1-467, 4 nM)) were expressed and purified. ADP-Glo luminescence assay (Promega) was used to measure the MT-ATPase motor activity. Porcine brain MTs were procured from Cytoskeleton Inc. Compounds were pre-incubated for <30 min in reaction buffer (15 mM Tris, pH 7.5, 10 mM MgCl2, 0.01% Pluronic F-68, 2% DMSO, 1 μM paclitaxel, 30 μg/mL MTs) with motor proteins at concentrations indicated above, 30 μM ATP was added to initiate the enzymatic reaction for 15 min at room temperature (RT). ADP-Glo reagents were added according to manufactures protocol, the luminescence intensity proportional to ADP present was measured using an EnVision plate reader (Perkin Elmer). Raw luminescence signal data was normalized to POC (percentage of positive control) and then Activity (%) was computed [POC=100×(sample signal−negative control signal)+(positive control signal−negative control signal). Activity (%)=POC−100]. The positive control (enzyme+substrate) and negative control (substrate alone) had equivalent concentrations of DMSO. Curve-fitting and IC50 values were determined by 4-parameter non-linear regression equation (variable slope) using GraphPad Prism 7.05 (GraphPad Software).

MDA-MB-157 cells = experiment: pH3 and PCM spot EC50 determination; conditions: pH3 and PCM spot EC50 values
[2] = tested on: normal human foreskin fibroblast cells; experiment: Arrayscan VTi multiplex imaging assays; format: cell-based; conditions: 48 hours, top 10 μM (C11) or 1 μM (C9); for total object count and BrdU incorporation: 9-point range
Description: Imaging assays were also carried out to determine the effects of KIF18A inhibitor treatment on normal somatic cells. Arrayscan VTi multiplex imaging assays were carried out with human FSF cells as described below. Briefly, normal human foreskin fibroblast cells were seeded at 6000 cells per well in 96-well imaging plates (Corning) and cultured overnight. The next day, two replicate 96-well plates were treated with DMSO or panel of test agents over a 9-point concentration range using 3-fold dilution with top concentration of 10 μM (KIF18A inhibitor Compound C11, nutlin-3a), 1 μM (KIF18A inhibitor Compound C9, BI-2536, ispinesib, paclitaxel), or 5 μM (palbociclib, GSK923295). After 48 hours of treatment, one plate was pulsed with BrdU (Invitrogen) for 3 hours before fixation. Both 96-well plates fixed with 4% formaldehyde (Thermo Scientific), washed twice with wash buffer [PBS, 1% BSA (Thermo Fisher), 0.2% Triton X-100 (Sigma)]. The first 96-well plate was processed for BrdU epitope detection using acid wash, blocked overnight at 4° C. in wash buffer supplemented with horse serum (4 drops serum per 10 mL) (Vector Labs) and stained with anti-BrdU-AlexaFluor-647 (B35140, Invitrogen, mouse, 3 μg per mL) and anti-p21 (12D1) (2947, Cell Signaling, rabbit, 1:400) antibodies for two hours at room temperature. Cells were washed twice in wash buffer and stained with secondary antibody [anti-rabbit-IgG-AlexaFluor-488 (A1 1034, Invitrogen, 1:2000)] and incubated for one hour at room temperature. The second 96-well plate was blocked overnight at 4° C. in wash buffer supplemented with horse serum (4 drops serum per 10 mL) (Vector Labs) and stained with anti-cl-PARP (214/215) (44-6986, Invitrogen, rabbit, 1:1500) and anti-γH2AX (05-636, Millipore, mouse, 1:1000) antibodies for two hours at room temperature. Cells were washed twice in wash buffer and stained with secondary antibodies [anti-rabbit-IgG-AlexaFluor-647 (A21245, Invitrogen, 1:2000), anti-mouse-IgG-AlexaFluor-488 (A1 1029, Invitrogen, 1:2000)] and incubated for one hour at room temperature. Both 96-well plates were washed twice and counterstained with Hoeschst 33342 (Invitrogen) nuclear dye. Imaging data was collected by widefield imaging on ArrayScan VTi HCS Reader (Thermo Scientific) from 64 fields per well using 20×objective. Valid nuclear object counts were determined for each well as well as the percentage of BrdU, p21, cl-PARP, and γH2AX positive objects for each test agent concentration and DMSO control. Concentration-response heatmaps were generated using GraphPad Prism software (V7.0.4).

SMILES | IC50 [1] | improvement of cell potency relative to a control compound (MDA-MB-157 cells) | total object count and BrdU incorporation [2] | cell cycle arrest measured by the induction of p21 protein expression [2] | induction of DNA damage measured by increase in γHH2X expression [2] | induction of apoptosis measured by cl-PARP expression [2]
CC(C)(C)NS(=O)(=O)c1cccc(NC(=O)c2ccc(S(=O)(=O)NC(C)(C)C)cc2N2CCC3(CC2)CC3)c1 [Compound C9, 4-(N-(tert-butyl)sulfamoyl)-N-(3-(N-(tert-butyl)sulfamoyl)phenyl)-2-(6-azaspiro[2.5]octan-6-yl)benzamide] | 180 nM | > 450 fold | behaved as vehicle control treated cells | no cell cycle arrest | no | no induction of apoptosis
CC(C)(CO)Nc1ccc(C(=O)Nc2cccc(S(=O)(=O)C3CCCC3)c2)c(N2CCC3(CC2)CC3)n1 [Compound C11, N-(3-(cyclopentylsulfonyl)phenyl)-6-((1-hydroxy-2-methylpropan-2-yl)amino)-2-(6-azaspiro[2.5]octan-6-yl)nicotinamide] | 70 nM | > 70 fold | behaved as vehicle control treated cells | no cell cycle arrest | no | no induction of apoptosis
